Values after ≈ are worked out from the molar mass of the structure shown.
Legend:
L5178Y [1] = experiment: Growth inhibition of mouse L5178Y cells at 10 ug/ml; assay type: functional; conditions: read-out: GI
L5178Y [2] = experiment: Growth inhibition of mouse L5178Y cells; assay type: functional; conditions: read-out: ID50 (the source's name)

Compound: O=c1ccn([C@@H]2O[C@H](CO)[C@@H](N=C=S)[C@@H]2O)c(=O)[nH]1
- inhibition of growth at 10 µg/mL (L5178Y [1]): 5%

Compound: O=c1ccn([C@@H]2O[C@H](CO)[C@@H](Br)[C@@H]2O)c(=O)[nH]1
- inhibition of growth at 10 µg/mL (L5178Y [1]): 6%

Compound: [N-]=[N+]=N[C@H]1[C@H](O)[C@H](n2ccc(=O)[nH]c2=O)O[C@@H]1CO
- inhibition of growth at 10 µg/mL (L5178Y [1]): 0%

Compound: Nc1ccn([C@@H]2O[C@H](CO)[C@@H](I)[C@@H]2O)c(=O)n1
- IC50 (L5178Y [2]): 1 µg/mL (≈ 2.83 µM)

Compound: Nc1ccn([C@@H]2O[C@H](CO)[C@@H](Br)[C@@H]2O)c(=O)n1
- IC50 (L5178Y [2]): 10 µg/mL (≈ 32.7 µM)

Compound: [N-]=[N+]=N[C@H]1[C@H](O)[C@H](n2ccc(N)nc2=O)O[C@@H]1CO
- IC50 (L5178Y [2]): 0.5 µg/mL (≈ 1.86 µM)

Compound: O=c1ccn([C@@H]2O[C@H](CO)[C@@H](I)[C@@H]2O)c(=O)[nH]1
- inhibition of growth at 10 µg/mL (L5178Y [1]): 0%

Compound: Nc1ccn([C@@H]2O[C@H](CO)[C@@H](N=C=S)[C@@H]2O)c(=O)n1
- inhibition of growth at 10 µg/mL (L5178Y [1]): 34%

Source: ChEMBL document CHEMBL3244268, “Nucleosides. 102. Synthesis of some 3'-deoxy-3'-substituted arabinofuranosylpyrimidine nucleosides” (1977)
